In patent US20260174739A1 (priority 2022, published 2026) one finds IC50 and Ki data, which are given here for 6 molecules.

Broadly, the IC50 is the midpoint of a concentration-inhibition curve. For orientation: Ki means a measure of affinity in units of concentration, obtained from inhibition or displacement.

Assay [1] concerns the target T1, NMDA receptor (N-methyl-D-aspartate receptor, NR1/2A) (Homo sapiens, UniProt Q05586+Q12879).
T1 construct: T2A self-cleaving peptide (linker between NR1 and 2A) (C)
As to the kind of experiment: NMDA receptor antagonistic activity assay (whole cell manual patch clamp, channel currents). It is filed as cell-based. Conditions: HEK293 cells transiently expressing hNR1/2A; current evoked by 100 μM glutamic acid + 100 μM glycine at -70 mV; read-out: NMDAR antagonistic activity (IC50). The method, then:
The effect of the compounds on NMDA receptor (N-methyl-D-aspartate receptor, NR1/2A) channel currents was tested using the electrophysiological whole cell manual patch clamp method.
The HEK293 cell line was cultured in DMEM medium containing 10% fetal bovine serum at 37° C. with 5% carbon dioxide.
Preparation of compound: on the day of testing, the stock solution of the compound of the present disclosure was diluted with DMSO to an intermediate concentration, which was then further diluted with an extracellular solution (containing 100 μM glutamic acid+100 µM glycine) to obtain the final concentration to be tested. […] Electrophysiological recording
Currents evoked by 100 μM glutamic acid (containing 100 μM glycine) were recorded at room temperature from HEK293 cells transiently expressing NMDA receptor channels using the whole-cell patch clamp technique. Glass microelectrodes were formed by pulling a glass electrode blank (BF150-86-10, Sutter) using a puller. The tip resistance after perfusion of electrode internal solution was about 2-5 MΩ. The glass microelectrodes could be connected to a patch clamp amplifier after being inserted into amplifier probes. […] After whole-cell recording was achieved, the cell was clamped at −70 mV. A gravity-driven rapid administration system was used to apply 100 μM glutamic acid (containing 100 μM glycine) to induce the channel current. After the current stabilized, the 100 μM glutamic acid (containing 100 μM glycine) was administered, and changes in current amplitude were observed. The compounds were administered sequentially from low to high concentration, followed by a final administration of 100 μM glutamic acid (containing 100 μM glycine). Each test concentration of the compound was applied for at least 20 s, and at least 2 cells (n≥2) were tested for each concentration. • d. Data processing
Data were analyzed using pClamp, GraphPad Prism 8, and Excel software.
The IC50 of the compound was calculated using the GraphPad Prism 8 software by equation fitting as follows:
[formula] • where X is the Log value of the test concentration of the test sample, Y is the inhibition percentage at the corresponding concentration, and Bottom and Top are the minimum and maximum inhibition percentages, respectively.
For orientation: The patch-clamp technique gives a direct electrical read-out from membranes.

Assay [2] concerns the target human DAT (Homo sapiens, UniProt Q01959). As to the kind of experiment: DAT transporter inhibitory activity test (neurotransmitter transporter uptake assay kit). It is filed as cell-based. Conditions: DAT stably transfected HEK cells; read-out: DAT (IC50).
Assay [3] concerns the target Sigma1 receptor (Homo sapiens, UniProt Q99720). The assay can be described thus: Sigma receptor affinity assay ([3H]-DTG binding), Sigma1R. The method, then:
(§1) Cell membrane: the membrane protein adopted in the experiment was extracted from an HEK293 cell strain stably expressing Sigmal receptor and an HEK293 cell strain stably expressing Sigma2 receptor, which were constructed by WuXi AppTec.
(§2) • 1) Detection buffer: 50 mM Tris-HCl, pH=7.4, stored at 4° C. • 2) Sigma 1R assay plate washing buffer: 50 mM Tris-HCl, pH=7.4, stored at 4° C.; sigma2R assay plate washing buffer: 50 mM Tris-HCl, 100 mM NaCl, pH=7.4, stored at 4° C. • 3) The compounds were diluted to each working concentration: 4-fold serial gradient dilutions for 8 concentrations.
The cell membrane solution and isotope solution were prepared with the pre-cooled detection buffer, with the following configuration information: the membrane concentration was 10 μg/well, and the final concentration of isotopic ligand [3H]-DTG was 5 nM. • 5) After the test compound and the positive control were diluted to the working concentration, 1 μL was added to each well of the assay plate. […] […]. The affinity inhibition constant Ki was calculated using the Cheng Prusoff equation:

The target in assay [4] is Sigma2 receptor (Homo sapiens, UniProt Q5BJF2). As to the kind of experiment: Sigma receptor affinity assay ([3H]-DTG binding), Sigma2R. The following applies: HEK293 membranes stably expressing Sigma2 receptor, [3H]-DTG 5 nM; read-out: Sigma2R (Ki). The method, then:
as §1, §2
The affinity inhibition constant Ki was calculated using the Cheng Prusoff equation: […]

T1 sequence (Q12879 23-1464, other chains not shown): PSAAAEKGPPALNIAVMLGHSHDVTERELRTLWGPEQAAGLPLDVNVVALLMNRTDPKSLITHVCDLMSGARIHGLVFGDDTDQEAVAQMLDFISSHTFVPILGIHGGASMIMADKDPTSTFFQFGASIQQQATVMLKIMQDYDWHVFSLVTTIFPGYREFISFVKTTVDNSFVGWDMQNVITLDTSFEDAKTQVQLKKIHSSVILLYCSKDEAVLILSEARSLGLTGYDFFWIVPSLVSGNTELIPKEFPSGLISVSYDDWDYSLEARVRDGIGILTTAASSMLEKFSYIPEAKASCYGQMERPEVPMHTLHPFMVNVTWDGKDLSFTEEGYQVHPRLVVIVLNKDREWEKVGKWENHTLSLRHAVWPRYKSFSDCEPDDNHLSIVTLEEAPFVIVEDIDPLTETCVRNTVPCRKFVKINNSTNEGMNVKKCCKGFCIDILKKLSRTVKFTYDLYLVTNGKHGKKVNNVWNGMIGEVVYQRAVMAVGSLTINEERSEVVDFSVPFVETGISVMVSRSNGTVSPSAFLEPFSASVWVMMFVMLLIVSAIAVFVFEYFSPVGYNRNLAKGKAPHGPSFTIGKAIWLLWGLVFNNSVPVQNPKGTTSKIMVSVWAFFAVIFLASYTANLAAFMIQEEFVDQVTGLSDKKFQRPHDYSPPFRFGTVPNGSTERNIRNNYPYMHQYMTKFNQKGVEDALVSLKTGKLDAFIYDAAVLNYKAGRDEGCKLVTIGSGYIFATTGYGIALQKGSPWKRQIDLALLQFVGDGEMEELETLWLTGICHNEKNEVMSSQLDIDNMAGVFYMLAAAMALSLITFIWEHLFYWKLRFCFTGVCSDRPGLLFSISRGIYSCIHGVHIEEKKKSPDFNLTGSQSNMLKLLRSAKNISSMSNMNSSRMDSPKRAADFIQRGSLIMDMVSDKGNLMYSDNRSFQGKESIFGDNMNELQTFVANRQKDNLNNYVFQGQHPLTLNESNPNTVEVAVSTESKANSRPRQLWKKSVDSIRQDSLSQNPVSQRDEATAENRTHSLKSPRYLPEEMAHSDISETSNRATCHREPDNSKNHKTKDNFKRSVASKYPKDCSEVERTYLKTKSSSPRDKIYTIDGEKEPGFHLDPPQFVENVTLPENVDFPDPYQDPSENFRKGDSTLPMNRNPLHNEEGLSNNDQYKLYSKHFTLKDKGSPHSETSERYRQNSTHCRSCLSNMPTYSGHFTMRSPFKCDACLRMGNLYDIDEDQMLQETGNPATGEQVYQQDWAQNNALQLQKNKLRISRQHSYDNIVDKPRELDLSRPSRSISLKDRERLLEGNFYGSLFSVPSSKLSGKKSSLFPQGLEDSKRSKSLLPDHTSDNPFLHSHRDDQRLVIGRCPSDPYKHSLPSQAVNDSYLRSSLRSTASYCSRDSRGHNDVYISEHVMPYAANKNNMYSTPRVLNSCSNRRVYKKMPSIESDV
Sequence of Sigma2 receptor (Q5BJF2 whole entry, species assumed): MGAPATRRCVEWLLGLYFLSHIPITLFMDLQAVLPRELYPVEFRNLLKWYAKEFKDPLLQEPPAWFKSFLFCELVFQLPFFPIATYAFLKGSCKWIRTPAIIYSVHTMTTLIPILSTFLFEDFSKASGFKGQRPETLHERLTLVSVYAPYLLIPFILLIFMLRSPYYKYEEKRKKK
Sequence of Sigma1 receptor (Q99720 whole entry): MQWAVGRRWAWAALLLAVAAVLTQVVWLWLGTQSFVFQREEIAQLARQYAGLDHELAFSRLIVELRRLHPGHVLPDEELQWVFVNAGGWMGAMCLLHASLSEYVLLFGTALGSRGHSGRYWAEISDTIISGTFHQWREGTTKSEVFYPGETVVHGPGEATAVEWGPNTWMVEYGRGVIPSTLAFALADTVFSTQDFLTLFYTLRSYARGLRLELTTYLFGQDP
Sequence of human DAT (Q01959 whole entry): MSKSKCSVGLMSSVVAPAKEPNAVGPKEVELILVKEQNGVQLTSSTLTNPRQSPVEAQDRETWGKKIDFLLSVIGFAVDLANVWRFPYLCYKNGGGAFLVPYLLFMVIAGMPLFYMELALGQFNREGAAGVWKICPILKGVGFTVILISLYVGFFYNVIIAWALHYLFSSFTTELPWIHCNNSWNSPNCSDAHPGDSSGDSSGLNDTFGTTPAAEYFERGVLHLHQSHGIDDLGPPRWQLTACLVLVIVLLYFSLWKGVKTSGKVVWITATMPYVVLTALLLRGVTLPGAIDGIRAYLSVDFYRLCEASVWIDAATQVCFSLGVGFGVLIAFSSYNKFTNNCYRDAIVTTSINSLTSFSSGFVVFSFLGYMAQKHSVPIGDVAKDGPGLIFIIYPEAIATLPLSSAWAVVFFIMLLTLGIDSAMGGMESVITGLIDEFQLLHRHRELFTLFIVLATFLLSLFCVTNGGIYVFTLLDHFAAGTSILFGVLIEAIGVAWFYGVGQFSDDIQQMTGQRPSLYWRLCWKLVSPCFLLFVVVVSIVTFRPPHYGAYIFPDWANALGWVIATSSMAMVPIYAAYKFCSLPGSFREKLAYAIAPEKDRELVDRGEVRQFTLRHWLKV

With `c1ccc([C@]2(N3CCCC3)CCc3[nH]ncc3C2)cc1` [S-A12], the IC50 in assay [1] was 180 nM.
On to `c1ccc([C@@]2(N3CCCCC3)CCc3[nH]ncc3C2)cc1` [R-A70], for which the IC50 in assay [2] stood at 8400 nM; in assay [1], 16000 nM.
Take `c1ccc([C@]2(N3CCCCC3)CCc3[nH]ncc3C2)cc1` [S-A70]: the IC50 in assay [1] is 840 nM.
In turn, `CNC1(c2ccccc2)CCc2sccc2C1` (racemic) [rac-A25, N-methyl-5-phenyl-4,5,6,7-tetrahydrobenzothiophen-5-amine] came in with a Ki in assay [3] of 280 nM.
Regarding “N^4-methyl-4-phenyl-4,5,6,7-tetrahydrobenzothiazole-2,4-diamine [rac-A39]”, the IC50 in assay [1] stood at 12000 nM.
As to `CN[C@@]1(c2ccccc2)CCc2ncsc2C1` [S-A13], the IC50 in assay [1] worked out at 2500 nM. In addition, the Ki in assay [4] is 257 nM.
